Experimental data published in US5216015A, “Compounds having hypocholesterolemic properties” (priority 1991, dated 1993).
Read-outs that look alike come from different tables or passages of the source. Each block holds one compound with its values, some of them ahead of it.

Columns and labels:
sterol synthesis = details: et al., cited from earlier work
[1] = Schroepfer, et al., Proc. Natl. Acad. Sci., USA 81, 6861-6865 (1984); cited from earlier work
HMG-CoA reductase [2] = details: Brown, et al., J. Biol. Chem. 249 (22), 7306 (1974); cited from earlier work
HMG-CoA reductase [3] = experiment: HMGR Screen: inhibition of HMG-CoA reductase solubilized from rat liver microsomes; assay type: biochemical
Method: (§1) The effectiveness of the compounds of this invention as hypocholesterolemic agents may be determined by the following pharmacologic tests which evaluate the HMG-CoA reductase inhibitory activity of said compounds. The HMGR Screen and Ex Vivo Fasted procedures are standard test procedures; the HMG-CoA reductase inhibitory results generally correlate with the HMG-CoA reductase inhibitory activity found in human patients.
Male rats were acclimated to an alternate 12 hours light-dark cycle for a period of 2-3 weeks. The animals, weighing 180-230 g, were fed ad libitum a rat chow containing 2% cholestyramine for 5 days prior to sacrifice at the mid-dark period. Liver microsomes were prepared and HMG-CoA reductase enzyme was solubilized from the microsomes by freeze-thaw manipulation in high ionic strength buffer. The enzyme preparation was stored at -80° C. in 300 μl portion samples. Prior to use, the enzyme was activated by warming at 37° C. for 30 minutes. A reaction mixture was prepared which consisted of, in a volume of 240 μl: 0.14M potassium phosphate buffer (pH 7.0); 0.18M KCl; 3.5 mM EDTA; 10 mM dithiothreitol; 0.1 mg/ml BSA; 30,000 cpm of [^14 C] HMG-CoA; 20 μM HMG-CoA, and 200 μg of activated enzyme with and without compounds of the present invention (in 10 μl DMSO). After 5 minutes incubation at 37° C. the reaction was initiated with 0.2 mM NADPH. The final assay volume was 300 μl. The reaction was then terminated with 100 μl of 1N HCl. After an additional incubation for 15 minutes at 37° C. to allow for complete lactonization of the product, the mixture was diluted with 3 ml distilled water. The diluted mixture was then poured over a 0.7×1.4 cm column containing 100-200 mesh Bio-Rex ion-exchange resin (chloride form of Bio-Rad) which was equilibrated with distilled water. With this resin the unreacted [^14 C] HMG-CoA was adsorbed and the product [^14 C] mevalonolactone was eluted (80% recovery) directly into scintillation vials. After the addition of 10 ml of Aquasol, radioactivities of the samples were measured in a scintillation counter. Results are reported as % inhibition of the enzyme in the presence of a given concentration of a compound of the present invention as compared with the activity of the enzyme in the absence of said compound, i.e., in the absence of inhibitor.

cholesterol synthesis = experiment: Ex-Vivo Fasted: inhibition of cholesterol synthesis in liver slices after oral dosing of fasted rats; details: Rattus norvegicus, 1 h, p.o. (Na+ salt), livers removed after one hour
From the text: as §1
Rats of 170-210 g were maintained on a low cholesterol diet for one week prior to use. Compounds of the present invention (identified in the table below) were given orally in 0.5% methocel to fasted (fasted for 16 hours) rats. After one hour the rats were decapitated and their livers removed and transferred to chilled oxygenated Kreb's-Ringer-bicarbonate buffer (pH 7.4). The livers were then chopped into 0.5 mm slices using a McIlwain tissue chopper, and were suspended in the same buffer. Aliquots of the suspension containing 100 mg tissue were pipetted to culture tubes which contained [^14 C] sodium octanoate (2 μCi, 3 mM). The tubes were gassed with 95% O2 /CO2, capped and incubated at 37° C. in a shaking water bath at 150 oscillation/min. for two hours. The final assay volume was 1.0 ml. […] After visualization with iodine the cholesterol spots were cut and counted with liquid scintillation fluid. […]

[4] = Schroepfer, J. Biol. Chem. 252 (24), 8975 (1977)
[5] = Kandutsch, J. Biol. Chem. 248 (24), 8408 (1974)

SMILES: CO[C@H]1CC[C@@]2(C)[C@@H](CC=C3[C@@H]2CC[C@]2(C)[C@@H]([C@H](C)CCCC(C)C)C[C@H](O)[C@@]32C)C1 [3β-methoxy-14α-methyl-5α-cholest-7-en-15α-ol]
inhibition of sterol synthesis (sterol synthesis; [4]): potent inhibitors of sterol synthesis

SMILES: CO[C@H]1CC[C@@]2(C)[C@@H](CC=C3[C@@H]2CC[C@]2(C)[C@@H]([C@H](C)CCCC(C)C)C[C@@H](O)[C@@]32C)C1 [3β-methoxy-14α-methyl-5α-cholest-7-en-15β-ol]
inhibition of sterol synthesis (sterol synthesis; [4]): potent inhibitors of sterol synthesis

SMILES: CC(C)CCC[C@@H](C)[C@H]1C[C@H](O)[C@@H]2C3=CC[C@H]4C[C@@H](O)CC[C@]4(C)[C@H]3CC[C@]12C [5α,14β-cholest-7-en-3β,15α-diol]
inhibition of sterol synthesis (sterol synthesis; [4]): potent inhibitors of sterol synthesis

SMILES: CC(C)CCC[C@@H](C)[C@H]1C[C@@H](O)[C@@H]2C3=CC[C@H]4C[C@@H](O)CC[C@]4(C)[C@H]3CC[C@]12C [5α,14β-cholest-7-en-3β,15β-diol]
inhibition of sterol synthesis (sterol synthesis; [4]): potent inhibitors of sterol synthesis

SMILES: CC(C)CCC[C@@H](C)[C@H]1CC(O)C2=C3C(O)C[C@H]4C[C@@H](O)CC[C@]4(C)[C@H]3CC[C@@]21C (stereo partly drawn) [5α-cholest-8(14)-en-3β,7.xi.,15.xi.-triol]
inhibition of sterol synthesis (sterol synthesis; [4]): potent inhibitors of sterol synthesis

SMILES: CC(C)CCC[C@@H](C)[C@H]1C[C@H](O)C2=C3CC[C@H]4C[C@@H](O)CC[C@]4(C)[C@H]3CC[C@@]21C [5α-cholest-8(14)-en-3β,15α-diol]
inhibition of sterol synthesis (sterol synthesis; [4]): potent inhibitors of sterol synthesis

SMILES: CC(C)CCC[C@@H](C)[C@H]1C[C@@H](O)C2=C3CC[C@H]4C[C@@H](O)CC[C@]4(C)[C@H]3CC[C@@]21C [5α-cholest-8(14)-en-3β,15β-diol]
inhibition of sterol synthesis (sterol synthesis; [4]): potent inhibitors of sterol synthesis

SMILES: CC(C)CCC[C@@H](C)[C@H]1CC(=O)C2=C3CC[C@H]4C[C@@H](O)CC[C@]4(C)[C@H]3CC[C@@]21C [5α-cholest-8(14)-en-3β-ol-15-one]
hypocholesterolemic activity [1]: significant hypocholesterolemic acitivity
inhibition of sterol synthesis (sterol synthesis; [4]): potent inhibitors of sterol synthesis

SMILES: CC(C)CCC[C@@H](C)[C@H]1CC[C@H]2[C@@H]3C(=O)C=C4C[C@@H](O)CC[C@]4(C)[C@H]3CC[C@]12C [7-ketocholesterol]
inhibition of sterol synthesis (sterol synthesis; [5]): inhibit sterol synthesis
suppression of HMG-CoA reductase activity (HMG-CoA reductase [2]): suppress HMG-CoA reductase activity

SMILES: CC(C)CCC[C@@H](C)[C@H]1CC[C@H]2[C@@H]3[C@H](O)C=C4C[C@@H](O)CC[C@]4(C)[C@H]3CC[C@]12C [7α-hydroxycholesterol]
inhibition of sterol synthesis (sterol synthesis; [5]): inhibit sterol synthesis

SMILES: CC(C)CCC[C@@H](C)[C@H]1CC[C@H]2[C@@H]3[C@@H](O)C=C4C[C@@H](O)CC[C@]4(C)[C@H]3CC[C@]12C [7β-hydroxycholesterol]
inhibition of sterol synthesis (sterol synthesis; [5]): inhibit sterol synthesis

SMILES: CC(C)CCC[C@@H](C)[C@H]1C[C@H](O)[C@@]2(C)C3=CC[C@H]4C[C@@H](O)CC[C@]4(C)[C@H]3CC[C@]12C [14α-methyl-5α-cholest-7-en-3β,15α-diol]
inhibition of sterol synthesis (sterol synthesis; [4]): potent inhibitors of sterol synthesis

SMILES: CC(C)CCC[C@@H](C)[C@H]1C[C@@H](O)[C@@]2(C)C3=CC[C@H]4C[C@@H](O)CC[C@]4(C)[C@H]3CC[C@]12C [14α-methyl-5α-cholest-7-en-3β,15β-diol]
inhibition of sterol synthesis (sterol synthesis; [4]): potent inhibitors of sterol synthesis

SMILES: CC(C)CCC[C@@H](C)[C@H]1CC(=O)[C@@]2(C)C3=CC[C@H]4C[C@@H](O)CC[C@]4(C)[C@H]3CC[C@]12C [14α-methyl-5α-cholest-7-en-3β-ol-15-one]
inhibition of sterol synthesis (sterol synthesis; [4]): potent inhibitors of sterol synthesis

HMGR Screen % Inhibition (HMG-CoA reductase [3]; Lactone Form, at 5.9 μM): 50%
HMGR Screen % Inhibition (HMG-CoA reductase [3]; Ring-opened/Sodium Salt, at 228 nM): 50%
SMILES: CCC(C)(C)C(=O)O[C@H]1C[C@H]2[C@@H](CC[C@@H]3C[C@H](O)CC[C@@]32C)[C@@H]2CCC=C(/C=C/C3CC(O)CC(=O)O3)[C@@]12C (stereo partly drawn) [Example 1, 12α-(2,2-dimethyl)butyryloxy-3α-hydroxy-17a-[E-2-(4(R)-hydroxy-3,4,5,6-tetrahydro-2H-pyran-2-on-6(S)-yl)ethenyl]-D-homo-5β-androst-17-ene and 12α-(2,2-dimethyl)butyryloxy-3α-hydroxy-17a-[E-2-(4(S)-hydroxy-3,4,5,6-tetrahydro-2H-pyran-2-on-6(R)-yl)ethenyl]-D-homo-5β-androst-17-ene]

SMILES: CCC(C)(C)C(=O)O[C@H]1C[C@H]2[C@@H](CC[C@@H]3C[C@H](O)CC[C@@]32C)[C@@H]2CC[C@H]([C@H](C)CC3CC(O)CC(=O)O3)[C@@]12C (stereo partly drawn) [Example 2, 12α-(2,2-dimethyl)butyryloxy-3α-hydroxy-17β-[3-(4(R)-hydroxy-3,4,5,6-tetrahydro-2H-pyran-2-on-6(R)-yl)-2(R)-2-propyl]-5β-androstane and 12α-(2,2-dimethyl)butyryloxy-3α-hydroxy-17β-[3-(4(S)-hydroxy-3,4,5,6-tetrahydro-2H-pyran-2-on-6(S)-yl)-2(R)-2-propyl]-5β-androstane]
HMGR Screen % Inhibition (HMG-CoA reductase [3]; Lactone Form, at 30 μM): 33%
HMGR Screen % Inhibition (HMG-CoA reductase [3]; Ring-opened/Sodium Salt, at 352 nM): 50%

SMILES: CCC(C)(C)C(=O)O[C@H]1C[C@H]2[C@@H]([C@H](OC(C)=O)C[C@@H]3C[C@H](O)CC[C@@]32C)[C@@H]2CC[C@H]([C@H](C)CC3CC(O)CC(=O)O3)[C@@]12C (stereo partly drawn) [Example 3, 7α-acetoxy-12α-(2,2-dimethyl)butyryloxy-3α-hydroxy-17β-[3-(4(R)-hydroxy-3,4,5,6-tetrahydro-2H-pyran-2-on-6(R)-yl)-2(R)-2-propyl]-5β-androstane and 7α-acetoxy-12α-(2,2-dimethyl)butyryloxy-3α-hydroxy-17β-[3-(4(S)-hydroxy-3,4,5,6-tetrahydro-2H-pyran-2-on-6(S)-yl)-2(R)-2-propyl]-5β-androstane]
HMGR Screen % Inhibition (HMG-CoA reductase [3]; Lactone Form, at 30 μM): 23%
HMGR Screen % Inhibition (HMG-CoA reductase [3]; Ring-opened/Sodium Salt, at 300 nM): 21%

HMGR Screen % Inhibition (HMG-CoA reductase [3]; Lactone Form, at 3 μM): 19%
HMGR Screen % Inhibition (HMG-CoA reductase [3]; Ring-opened/Sodium Salt, at 119 nM): 50%
SMILES: CCC(C)(C)C(=O)O[C@H]1C[C@H]2C(=C3CC[C@H]([C@H](C)CC4CC(O)CC(=O)O4)[C@]31C)CC[C@@H]1C[C@H](O)CC[C@@]12C (stereo partly drawn) [Example 4, 12α-(2,2-dimethyl)butyryloxy-3α-hydroxy-17β-[3-(4(R)-hydroxy-3,4,5,6-tetrahydro-2H-pyran-2-on-6(R)-yl)-2(R)-2-propyl]-5β-androst-8(14)ene and 12α-(2,2-dimethyl)butyryloxy-3α-hydroxy-17β-[3-(4(S)-hydroxy-3,4,5,6-tetrahydro-2H-pyran-2-on-6(S)-yl)-2(R)-2-propyl]-5β-androst-8(14)-ene]

HMGR Screen % Inhibition (HMG-CoA reductase [3]; Lactone Form, at 1.6 μM): 50%
HMGR Screen % Inhibition (HMG-CoA reductase [3]; Ring-opened/Sodium Salt, at 16.9 nM): 50%
SMILES: CCC(C)(C)C(=O)O[C@H]1C[C@H]2C(=C3CC[C@H](CC[C@@H]4C[C@@H](O)CC(=O)O4)[C@]31C)CC[C@@H]1C[C@H](O)CC[C@@]12C [Example 5, 12α-(2,2-dimethyl)butyryloxy-3α-hydroxy-17β-[2-(4(R)-hydroxy-3,4,5,6-tetrahydro-2H-pyran-2-on-6(R)-yl)-ethyl]-5β-androst-8(14)-ene]
inhibition at 3 mg/kg (cholesterol synthesis): 47%
